Data on 29 compounds can be found in US20250179061A1 (SIRONAX LTD., priority 2022, published 2025).

Read-outs that look alike come from different tables or passages of the source.

This assay has as its system HT-29 cells. Kind of assay: HT-29 necroptosis cell viability assay (TNF-α/SMAC mimetic/zVAD-FMK, CellTiter-Glo). Format: cell-based. The following applies: Homo sapiens. In outline:
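Necroptosis was triggered by TNF-α (10 ng/ml), SMAC mimetic (6 μM) and zVAD-FMK (10 μM) in serum-free medium during 20 h compound exposure (10 concentrations, threefold steps) of HT-29 cells. IC50 from duplicate dose-responses uses CellTiter-Glo ATP luminescence as viability read-out.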
In general terms: In ATP-based viability assays light output follows the ATP content of the culture.

The mark [1] stands for this setting: HT-29, HT-29 necroptosis cell viability assay, class symbols for IC50, read-out: Activity.
Setting [2] is: HT-29, HT-29 necroptosis cell viability, IC50 class symbols, read-out: Activity.
[3] abbreviates: HT-29, HT-29 cells, necroptosis induced by TNF-α/SMAC mimetic/zVAD-FMK, CellTiter-Glo, read-out: Activity (IC50 class).

Regarding `Cc1nc(C(=O)N2CC(C)(O)C2)sc1Oc1ccc(-n2ncn(Cc3ncccc3F)c2=O)cc1F` [Example 608, 2-(3-fluoro-4-((2-(3-hydroxy-3-methylazetidine-1-carbonyl)-4-methylthiazol-5-yl)oxy)phenyl)-4-((3-fluoropyridin-2-yl)methyl)-2,4-dihydro-3H-1,2,4-triazol-3-one], the IC50 under setting [1] was less than 100 nM.

Turning to `C[C@H]1C[C@@H](N)CN1c1cc(Oc2ccc(-n3ncn(Cc4c(F)cccc4F)c3=O)cc2F)ccn1` [Example 369, 2-(4-((2-((2S,4R)-4-amino-2-methylpyrrolidin-1-yl)pyridin-4-yl)oxy)-3-fluorophenyl)-4-(2,6-difluorobenzyl)-2,4-dihydro-3H-1,2,4-triazol-3-one], the IC50 under setting [2] is less than 100 nM.

On to `Cc1nc(C#N)c(C)n1Cc1ccc(-n2ncn(Cc3c(F)cccc3F)c2=O)cc1F` [Example 122, 1-(4-(4-(2,6-difluorobenzyl)-5-oxo-4,5-dihydro-1H-1,2,4-triazol-1-yl)-2-fluorobenzyl)-2,5-dimethyl-1H-imidazole-4-carbonitrile], for which the IC50 under setting [1] is less than 100 nM.

On to `O=c1n(Cc2c(F)cccc2F)cnn1-c1ccc(Oc2ccnc(NC3CC3)c2)cc1` [Example 523, 2-(4-((2-(cyclopropylamino)pyridin-4-yl)oxy)phenyl)-4-(2,6-difluorobenzyl)-2,4-dihydro-3H-1,2,4-triazol-3-one], for which the IC50 under setting [1] is 100 to 1000 nM.

`O=c1n(Cc2c(F)cccc2F)cnn1-c1ccc(Oc2cncs2)cc1` [Example 658]: the IC50 under setting [3] was less than 100 nM.

Take `Cc1nc(C(N)=O)c(C)n1Cc1ccc(-n2ncn(Cc3c(F)cccc3F)c2=O)cc1F` [Example 217, 1-(4-(4-(2,6-difluorobenzyl)-5-oxo-4,5-dihydro-1H-1,2,4-triazol-1-yl)-2-fluorobenzyl)-2,5-dimethyl-1H-imidazole-4-carboxamide]: under setting [1], the IC50 fell in the range of 100 to 1000 nM.

On to `CCOC1CN(c2ncc(F)c(Oc3ccc(-n4ncn(Cc5c(F)cccc5F)c4=O)cc3)c2F)C1` [Example 674, 4-(2,6-difluorobenzyl)-2-(4-((2-(3-ethoxyazetidin-1-yl)-3,5-difluoropyridin-4-yl)oxy)phenyl)-2,4-dihydro-3H-1,2,4-triazol-3-one], for which the IC50 under setting [3] was less than 100 nM.

As to `Cc1nn(-c2ccc(S(=O)(=O)N3CCN(CC4CCOCC4)CC3)cc2)c(=O)n1Cc1ccccc1` [Example 622, 4-benzyl-5-methyl-2-(4-((4-((tetrahydro-2H-pyran-4-yl)methyl)piperazin-1-yl)sulfonyl)phenyl)-2,4-dihydro-3H-1,2,4-triazol-3-one], under setting [1], the IC50 fell in the range of 100 to 1000 nM.

With `Nc1ccccc1Oc1ccc(-n2ncn(Cc3c(F)cccc3F)c2=O)cc1` [Example 439, 2-(4-(2-aminophenoxy)phenyl)-4-(2,6-difluorobenzyl)-2,4-dihydro-3H-1,2,4-triazol-3-one], the IC50 under setting [2] was less than 100 nM.

With `Cc1nc(C#N)c(Oc2ccc(-n3ncn(Cc4c(F)cccc4F)c3=O)cc2F)s1` [Example 120, 5-(4-(4-(2,6-difluorobenzyl)-5-oxo-4,5-dihydro-1H-1,2,4-triazol-1-yl)-2-fluorophenoxy)-2-methylthiazole-4-carbonitrile], under setting [1], the IC50 was less than 100 nM.

`CCOC(=O)c1c(C)c(C)nn1Cc1ccc(-n2ncn(Cc3c(F)cccc3F)c2=O)cc1F` [Example 203, ethyl 1-(4-(4-(2,6-difluorobenzyl)-5-oxo-4,5-dihydro-1H-1,2,4-triazol-1-yl)-2-fluorobenzyl)-3,4-dimethyl-1H-pyrazole-5-carboxylate]: the IC50 under setting [1] is 100 to 1000 nM.

Regarding `Cc1c(Oc2ccc(-n3ncn(Cc4c(F)cccc4F)c3=O)cc2F)ccnc1N1CC(C)(N)C1` [Example 417, 2-(4-((2-(3-amino-3-methylazetidin-1-yl)-3-methylpyridin-4-yl)oxy)-3-fluorophenyl)-4-(2,6-difluorobenzyl)-2,4-dihydro-3H-1,2,4-triazol-3-one], under setting [2], the IC50 was less than 100 nM.

As for `COC1(C#N)CN(c2cc(Oc3ccc(-n4ncn(Cc5c(F)cccc5F)c4=O)cc3)c(F)cn2)C1` [Example 302, 1-(4-(4-(4-(2,6-difluorobenzyl)-5-oxo-4,5-dihydro-1H-1,2,4-triazol-1-yl)phenoxy)-5-fluoropyridin-2-yl)-3-methoxyazetidine-3-carbonitrile], the IC50 under setting [2] is less than 100 nM.

Turning to `Cc1nc(C(N)=O)sc1Oc1ccc(-n2ncn(Cc3ccccc3C#N)c2=O)cc1F` [Example 566, 5-(4-(4-(2-cyanobenzyl)-5-oxo-4,5-dihydro-1H-1,2,4-triazol-1-yl)-2-fluorophenoxy)-4-methylthiazole-2-carboxamide], under setting [1], the IC50 is less than 100 nM.

On to `COc1cncc(Oc2ccc(-n3ncn(Cc4c(F)cccc4F)c3=O)cc2)c1` [Example 671, 4-(2,6-difluorobenzyl)-2-(4-((5-methoxypyridin-3-yl)oxy)phenyl)-2,4-dihydro-3H-1,2,4-triazol-3-one], for which the IC50 under setting [3] is less than 100 nM.

For the compound `CCOC1CN(c2cc(Oc3ccc(-n4ncn(Cc5c(F)cccc5F)c4=O)cc3F)c(Cl)cn2)C1` [Example 365, 2-(4-((5-chloro-2-(3-ethoxyazetidin-1-yl)pyridin-4-yl)oxy)-3-fluorophenyl)-4-(2,6-difluorobenzyl)-2,4-dihydro-3H-1,2,4-triazol-3-one], the IC50 under setting [2] is less than 100 nM.

Regarding `CC1(N)CN(c2cc(Oc3ccc(-n4ncn(Cc5c(F)cccc5F)c4=O)cc3F)c(Cl)cn2)C1` [Example 421, 2-(4-((2-(3-amino-3-methylazetidin-1-yl)-5-chloropyridin-4-yl)oxy)-3-fluorophenyl)-4-(2,6-difluorobenzyl)-2,4-dihydro-3H-1,2,4-triazol-3-one], the IC50 under setting [2] was less than 100 nM.

Turning to `Cc1nc(C2CCN(C)C2)sc1Oc1ccc(-n2ncn(Cc3c(F)cccc3F)c2=O)cc1` (centres unmarked) [Example 554, 4-(2,6-difluorobenzyl)-2-(4-((4-methyl-2-(1-methylpyrrolidin-3-yl)thiazol-5-yl)oxy)phenyl)-2,4-dihydro-3H-1,2,4-triazol-3-one], the IC50 under setting [1] was less than 100 nM.

With `Cn1nc(CC#N)cc1Oc1ccc(-n2ncn(Cc3c(F)cccc3F)c2=O)cc1F` [Example 140, 2-(5-(4-(4-(2,6-difluorobenzyl)-5-oxo-4,5-dihydro-1H-1,2,4-triazol-1-yl)-2-fluorophenoxy)-1-methyl-1H-pyrazol-3-yl)acetonitrile], under setting [1], the IC50 was less than 100 nM.

In the case of `O=c1n(Cc2c(F)cccc2F)cnn1-c1ccc(Oc2ccnc(NCC3CC3)c2)cc1` [Example 524, 2-(4-((2-((cyclopropylmethyl)amino)pyridin-4-yl)oxy)phenyl)-4-(2,6-difluorobenzyl)-2,4-dihydro-3H-1,2,4-triazol-3-one], the IC50 under setting [1] is less than 100 nM.

For the compound `CCOC1CN(c2nccc(Oc3ccc(-n4ncn(Cc5c(F)cccc5F)c4=O)cc3)c2F)C1` [Example 355, 4-(2,6-difluorobenzyl)-2-(4-((2-(3-ethoxyazetidin-1-yl)-3-fluoropyridin-4-yl)oxy)phenyl)-2,4-dihydro-3H-1,2,4-triazol-3-one], under setting [2], the IC50 is less than 100 nM.

Turning to `Cc1nc(-c2ccnn2C)sc1Oc1ccc(-n2ncn(Cc3c(F)cccc3F)c2=O)cc1` [Example 544, 4-(2,6-difluorobenzyl)-2-(4-((4-methyl-2-(1-methyl-1H-pyrazol-5-yl)thiazol-5-yl)oxy)phenyl)-2,4-dihydro-3H-1,2,4-triazol-3-one], under setting [1], the IC50 was less than 100 nM.

Take `Cc1nc(N2CC3(CCN3)C2)sc1Oc1ccc(-n2ncn(Cc3c(F)cccc3F)c2=O)cc1` [Example 455, 4-(2,6-difluorobenzyl)-2-(4-((4-methyl-2-(1,6-diazaspiro[3.3]heptan-6-yl)thiazol-5-yl)oxy)phenyl)-2,4-dihydro-3H-1,2,4-triazol-3-one]: under setting [2], the IC50 was less than 100 nM.

Turning to `Cc1nn(-c2ccc(S(=O)(=O)N3CCN(C4CCOCC4)CC3)cc2)c(=O)n1Cc1ccccc1` [Example 621, 4-benzyl-5-methyl-2-(4-((4-(tetrahydro-2H-pyran-4-yl)piperazin-1-yl)sulfonyl)phenyl)-2,4-dihydro-3H-1,2,4-triazol-3-one], the IC50 under setting [1] was greater than 10000 nM.

As to `O=c1n(Cc2c(F)cccc2F)cnn1-c1ccc(Oc2ccnc(N3CCC34COC4)c2)cc1` [Example 245, 2-(4-((2-(6-oxa-1-azaspiro[3.3]heptan-1-yl)pyridin-4-yl)oxy)phenyl)-4-(2,6-difluorobenzyl)-2,4-dihydro-3H-1,2,4-triazol-3-one], the IC50 under setting [2] lay in the range of 100 to 1000 nM.

With `Cc1c(C#N)cnn1Cc1ccc(-n2ncn(Cc3c(F)cccc3F)c2=O)cc1` [Example 191, 1-(4-(4-(2,6-difluorobenzyl)-5-oxo-4,5-dihydro-1H-1,2,4-triazol-1-yl)benzyl)-5-methyl-1H-pyrazole-4-carbonitrile], under setting [1], the IC50 is less than 100 nM.

Take `COC1(C#N)CN(c2ccnc(Cl)c2Oc2ccc(-n3ncn(Cc4c(F)cccc4F)c3=O)cc2)C1` [Example 359, 1-(2-chloro-3-(4-(4-(2,6-difluorobenzyl)-5-oxo-4,5-dihydro-1H-1,2,4-triazol-1-yl)phenoxy)pyridin-4-yl)-3-methoxyazetidine-3-carbonitrile]: under setting [2], the IC50 lay in the range of 100 to 1000 nM.

With `Cc1nc(N2CC(C)(N)C2)sc1Oc1ccc(-n2ncn(Cc3c(F)cccc3F)c2=O)cc1` [Example 390, 2-(4-((2-(3-amino-3-methylazetidin-1-yl)-4-methylthiazol-5-yl)oxy)phenyl)-4-(2,6-difluorobenzyl)-2,4-dihydro-3H-1,2,4-triazol-3-one], the IC50 under setting [2] was less than 100 nM.

Consider `Cn1cc(C(N)=O)nc1Oc1ccc(-n2nc3n(c2=O)[C@H](c2ccccc2)CC3)cc1F` (single isomer, unassigned) [Example 685], for which, for the setting “HT-29 cells stimulated with TNF-α (10 ng/ml), SMAC mimetic (6 μM) and zVAD-FMK (10 μM), 20 hours, CellTiter-Glo ATP luminescence, geometric mean IC50 from 10 points, read-out: Activity”, the IC50 fell in the range of 100 to 1000 nM.
